Converted amounts (≈) assume the structure as drawn.
Tests used:
Assay type in all cases: functional
Candida parapsilosis = assay: Antifungal activity against Candida parapsilosis ATCC 22019 after 24 hrs by macrodilution method; conditions: Lodderomyces parapsilosis, ATCC 22019, 24 h
Nakaseomyces glabratus = assay: Antifungal activity against Candida glabrata ATCC 3916 after 24 hrs by macrodilution method; conditions: ATCC 3916, 24 h
Aspergillus niger = assay: Antifungal activity against Aspergillus niger DSMZ 737 after 24 hrs by macrodilution method; conditions: DSMZ 737, 24 h
Pichia kudriavzevii = assay: Antifungal activity against Candida krusei ATCC 30068 after 24 hrs by macrodilution method; conditions: ATCC 30068, 24 h
Saccharomyces cerevisiae = assay: Antifungal activity against Saccharomyces cerevisiae DSMZ 1333 after 24 hrs by macrodilution method; conditions: DSMZ 1333, 24 h
Candida albicans = assay: Antifungal activity against Candida albicans ATCC 90028 after 24 hrs by macrodilution method; conditions: ATCC 90028, 24 h

| Compound | MIC (Candida parapsilosis) [µg/mL] | MIC (Nakaseomyces glabratus) [µg/mL] | MIC (Aspergillus niger) [µg/mL] | MIC (Pichia kudriavzevii) [µg/mL] | MIC (Saccharomyces cerevisiae) [µg/mL] | MIC (Candida albicans) [µg/mL] |
| --- | --- | --- | --- | --- | --- | --- |
| OC(Cn1cncn1)(Cn1nnc2ccccc21)c1ccc(F)cc1F (racemic) | 0.8 (≈ 2.25 µM) | 25 (≈ 70.2 µM) | > 100 | 25 (≈ 70.2 µM) | 1.6 (≈ 4.49 µM) | 0.8 (≈ 2.25 µM) |
| Cc1cc2nnn(CC(O)(Cn3cncn3)c3ccc(F)cc3F)c2cc1C (racemic) | 50 (≈ 130 µM) | 100 (≈ 260 µM) | 100 (≈ 260 µM) | > 100 | 50 (≈ 130 µM) | 12.5 (≈ 32.5 µM) |
| COc1ccc2c(c1)nnn2CC(O)(Cn1cncn1)c1ccc(F)cc1F (racemic) | 12.5 (≈ 32.4 µM) | 50 (≈ 129 µM) | 100 (≈ 259 µM) | 50 (≈ 129 µM) | 25 (≈ 64.7 µM) | 12.5 (≈ 32.4 µM) |
| OC(Cn1cncn1)(Cn1nnc2cc(F)ccc21)c1ccc(F)cc1F (racemic) | 3.1 (≈ 8.28 µM) | 25 (≈ 66.8 µM) | 100 (≈ 267 µM) | 50 (≈ 134 µM) | 12.5 (≈ 33.4 µM) | 25 (≈ 66.8 µM) |
| OC(Cn1cncn1)(Cn1nnc2cc(Cl)ccc21)c1ccc(F)cc1F (racemic) | 12.5 (≈ 32 µM) | 50 (≈ 128 µM) | 25 (≈ 64 µM) | > 100 | 6.2 (≈ 15.9 µM) | 6.2 (≈ 15.9 µM) |
| Cc1ccc2c(c1)nnn2CC(O)(Cn1cncn1)c1ccc(F)cc1F (racemic) | 12.5 (≈ 33.8 µM) | 25 (≈ 67.5 µM) | 50 (≈ 135 µM) | 25 (≈ 67.5 µM) | 6.2 (≈ 16.7 µM) | 12.5 (≈ 33.8 µM) |
| C[C@@H]1[C@H](O)[C@@H](C)/C=C/C=C/C=C/C=C/C=C/C=C/C=C/[C@H](O[C@@H]2O[C@H](C)[C@@H](O)[C@H](N)[C@@H]2O)C[C@@H]2O[C@](O)(C[C@@H](O)C[C@@H](O)[C@H](O)CC[C@@H](O)C[C@@H](O)CC(=O)O[C@H]1C)C[C@H](O)[C@H]2C(=O)O [AMPHOTERICIN B] | 0.4 (≈ 0.433 µM) | 0.4 (≈ 0.433 µM) | 0.8 (≈ 0.866 µM) | 0.4 (≈ 0.433 µM) | 0.4 (≈ 0.433 µM) | 0.4 (≈ 0.433 µM) |
| OC(Cn1cncn1)(Cn1nnc2cccnc21)c1ccc(F)cc1F (racemic) | 25 (≈ 70 µM) | 100 (≈ 280 µM) | 100 (≈ 280 µM) | 100 (≈ 280 µM) | 50 (≈ 140 µM) | 6.2 (≈ 17.4 µM) |
| O=[N+]([O-])c1ccc2nnn(CC(O)(Cn3cncn3)c3ccc(F)cc3F)c2c1 (racemic) | 100 (≈ 249 µM) | > 100 | 100 (≈ 249 µM) | > 100 | 100 (≈ 249 µM) | 50 (≈ 125 µM) |
| OC(Cn1cncn1)(Cn1cncn1)c1ccc(F)cc1F [FLUCONAZOLE] | 0.8 (≈ 2.61 µM) | 50 (≈ 163 µM) | > 100 | 50 (≈ 163 µM) | 0.8 (≈ 2.61 µM) | 0.8 (≈ 2.61 µM) |
| Cc1cc2nn(CC(O)(Cn3cncn3)c3ccc(F)cc3F)nc2cc1C (racemic) | 3.1 (≈ 8.06 µM) | 25 (≈ 65 µM) | 25 (≈ 65 µM) | 100 (≈ 260 µM) | 6.2 (≈ 16.1 µM) | 1.6 (≈ 4.16 µM) |
| Cc1ccc2nnn(CC(O)(Cn3cncn3)c3ccc(F)cc3F)c2c1 (racemic) | 6.2 (≈ 16.7 µM) | 50 (≈ 135 µM) | 12.5 (≈ 33.8 µM) | 25 (≈ 67.5 µM) | 6.2 (≈ 16.7 µM) | 25 (≈ 67.5 µM) |
| OC(Cn1cncn1)(Cn1nnc2ccc(F)cc21)c1ccc(F)cc1F (racemic) | 25 (≈ 66.8 µM) | > 100 | > 100 | > 100 | 6.2 (≈ 16.6 µM) | 12.5 (≈ 33.4 µM) |
| O=[N+]([O-])c1ccc2c(c1)nnn2CC(O)(Cn1cncn1)c1ccc(F)cc1F (racemic) | 6.2 (≈ 15.4 µM) | 100 (≈ 249 µM) | 100 (≈ 249 µM) | 50 (≈ 125 µM) | 12.5 (≈ 31.1 µM) | 1.6 (≈ 3.99 µM) |
| OC(Cn1cncn1)(Cn1nnc2ccc(Cl)cc21)c1ccc(F)cc1F (racemic) | 100 (≈ 256 µM) | > 100 | > 100 | 100 (≈ 256 µM) | 100 (≈ 256 µM) | 6.2 (≈ 15.9 µM) |
